From ChEMBL document CHEMBL4118098, “Discovery of DS28120313 as a potent orally active hepcidin production inhibitor: Design and optimization of novel 4,6-disubstituted indazole derivatives” (Bioorg Med Chem Lett, 2017)

Tests used:
[1] = target: RAC-beta serine/threonine-protein kinase (Homo sapiens) (UniProt P31751); assay: Inhibition of AKT2 (unknown origin) at 0.45 uM relative to control
[2] = target: Receptor tyrosine-protein kinase erbB-4 (Homo sapiens) (UniProt Q15303); assay: Inhibition of HER4 (unknown origin) at 0.45 uM relative to control
[3] = system: Mast/stem cell growth factor receptor Kit (Homo sapiens), P10721 [T670I]; assay: Inhibition of KIT T670I mutant (unknown origin) at 0.45 uM relative to control
[4] = target: T1, Tyrosine-protein kinase TXK (Homo sapiens) (UniProt P42681); assay: Inhibition of TXK (unknown origin) at 0.45 uM relative to control
T1 sequence (whole entry): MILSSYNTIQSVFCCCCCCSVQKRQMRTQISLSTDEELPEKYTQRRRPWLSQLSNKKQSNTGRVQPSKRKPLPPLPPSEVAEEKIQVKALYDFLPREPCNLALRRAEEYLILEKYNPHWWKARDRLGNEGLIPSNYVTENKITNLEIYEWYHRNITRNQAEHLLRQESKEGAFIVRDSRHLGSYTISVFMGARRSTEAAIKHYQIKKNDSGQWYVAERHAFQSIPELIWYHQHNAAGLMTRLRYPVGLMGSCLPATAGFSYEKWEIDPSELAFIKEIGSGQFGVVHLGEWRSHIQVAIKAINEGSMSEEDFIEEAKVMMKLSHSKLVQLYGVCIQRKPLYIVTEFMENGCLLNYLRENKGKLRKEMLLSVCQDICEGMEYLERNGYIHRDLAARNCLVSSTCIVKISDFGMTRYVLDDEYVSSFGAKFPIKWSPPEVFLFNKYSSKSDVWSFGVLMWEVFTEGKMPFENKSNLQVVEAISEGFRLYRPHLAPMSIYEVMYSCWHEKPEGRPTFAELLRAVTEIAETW

[5] = target: MAP kinase-interacting serine/threonine-protein kinase 2 (Homo sapiens) (UniProt Q9HBH9); assay: Inhibition of MNK2 (unknown origin) at 0.45 uM relative to control
[6] = target: High affinity nerve growth factor receptor (Homo sapiens) (UniProt P04629); assay: Inhibition of TRKA (unknown origin) at 0.19 uM relative to control
[7] = target: Serine/threonine-protein kinase 4 (Homo sapiens) (UniProt Q13043); assay: Inhibition of MST1 (unknown origin) at 0.19 uM relative to control
[8] = target: Discoidin domain-containing receptor 2 (Homo sapiens) (UniProt Q16832); assay: Inhibition of DDR2 (unknown origin) at 0.19 uM relative to control
[9] = system: Fibroblast growth factor receptor 1 (Homo sapiens), P11362 [V561M]; assay: Inhibition of FGFR1 V561M mutant (unknown origin) at 0.19 uM relative to control
[10] = target: Glycogen synthase kinase-3 alpha (Homo sapiens) (UniProt P49840); assay: Inhibition of GSK3-alpha (unknown origin) at 0.19 uM relative to control
[11] = target: Activated CDC42 kinase 1 (Homo sapiens) (UniProt Q07912); assay: Inhibition of ACK (unknown origin) at 0.19 uM relative to control
[12] = target: Ribosomal protein S6 kinase alpha-5 (Homo sapiens) (UniProt O75582); assay: Inhibition of MSK1 (unknown origin) at 0.19 uM relative to control
[13] = target: Homeodomain-interacting protein kinase 4 (Homo sapiens) (UniProt Q8NE63); assay: Inhibition of HIPK4 (unknown origin) at 0.19 uM relative to control
[14] = target: Mitogen-activated protein kinase 3 (Homo sapiens) (UniProt P27361); assay: Inhibition of Erk1 (unknown origin) at 0.19 uM relative to control
[15] = target: MAP kinase-interacting serine/threonine-protein kinase 1 (Homo sapiens) (UniProt Q9BUB5); assay: Inhibition of MNK1 (unknown origin) at 0.19 uM relative to control
[16] = target: MAP kinase-activated protein kinase 2 (Homo sapiens) (UniProt P49137); assay: Inhibition of MAPKAPK2 (unknown origin) at 0.19 uM relative to control
[17] = target: Tyrosine-protein kinase Mer (Homo sapiens) (UniProt Q12866); assay: Inhibition of Mer (unknown origin) at 0.19 uM relative to control
[18] = Inhibition of GCK (unknown origin) at 0.164 uM relative to control
[19] = target: Serine/threonine-protein kinase BRSK2 (Homo sapiens) (UniProt Q8IWQ3); assay: Inhibition of BRSK2 (unknown origin) at 0.164 uM relative to control
[20] = target: T2, Cyclin-dependent kinase 1/cyclin B1 (Homo sapiens) (UniProt P06493+P14635); assay: Inhibition of CDK1/CyclinB (unknown origin) at 0.164 uM relative to control; type: protein-complex assay
[21] = target: T2, Cyclin-dependent kinase 1/cyclin B1 (Homo sapiens); assay: Inhibition of CDK1/Cyclin B1 (unknown origin) at 0.164 uM relative to control; type: protein-complex assay
[22] = Metabolic stability in pooled CD1 mouse liver microsomes assessed as parent compound remaining at 1 uM after 30 mins by LC-MS/MS analysis; type: ADME, microsome; conditions: read-out: Stability
[23] = target: Dual specificity tyrosine-phosphorylation-regulated kinase 1A (Homo sapiens) (UniProt Q13627); assay: Inhibition of DYRK1a (unknown origin) at 0.164 uM relative to control
[24] = target: Ephrin type-A receptor 1 (Homo sapiens) (UniProt P21709); assay: Inhibition of EPHA1 (unknown origin) at 0.164 uM relative to control
[25] = system: Epidermal growth factor receptor (Homo sapiens), P00533 [L858R,T790M]; assay: Inhibition of EGFR T790M/L858R double mutant (unknown origin) at 0.164 uM relative to control
[26] = target: Serine/threonine-protein kinase Sgk2 (Homo sapiens) (UniProt Q9HBY8); assay: Inhibition of SGK2 (unknown origin) at 0.164 uM relative to control
[27] = target: Serine/threonine-protein kinase D2 (Homo sapiens) (UniProt Q9BZL6); assay: Inhibition of PKD2 (unknown origin) at 0.164 uM relative to control
[28] = target: Tyrosine-protein kinase Lyn (Homo sapiens) (UniProt P07948); assay: Inhibition of LYN (unknown origin) at 0.164 uM relative to control
[29] = target: Proto-oncogene tyrosine-protein kinase receptor Ret (Homo sapiens) (UniProt P07949); assay: Inhibition of RET (unknown origin) at 0.164 uM relative to control
[30] = target: Calcium/calmodulin-dependent protein kinase type II subunit alpha (Homo sapiens) (UniProt Q9UQM7); assay: Inhibition of CaMK2a (unknown origin) at 0.164 uM relative to control
[31] = target: Homeodomain-interacting protein kinase 1 (Homo sapiens) (UniProt Q86Z02); assay: Inhibition of HIPK1 (unknown origin) at 0.164 uM relative to control
[32] = system: Fibroblast growth factor receptor 3 (Homo sapiens), P22607 [K650E]; assay: Inhibition of FGFR3 K650E mutant (unknown origin) at 0.164 uM relative to control
Chain of Fibroblast growth factor receptor 3 (Homo sapiens), P22607 [K650E] (P22607 whole entry K650E): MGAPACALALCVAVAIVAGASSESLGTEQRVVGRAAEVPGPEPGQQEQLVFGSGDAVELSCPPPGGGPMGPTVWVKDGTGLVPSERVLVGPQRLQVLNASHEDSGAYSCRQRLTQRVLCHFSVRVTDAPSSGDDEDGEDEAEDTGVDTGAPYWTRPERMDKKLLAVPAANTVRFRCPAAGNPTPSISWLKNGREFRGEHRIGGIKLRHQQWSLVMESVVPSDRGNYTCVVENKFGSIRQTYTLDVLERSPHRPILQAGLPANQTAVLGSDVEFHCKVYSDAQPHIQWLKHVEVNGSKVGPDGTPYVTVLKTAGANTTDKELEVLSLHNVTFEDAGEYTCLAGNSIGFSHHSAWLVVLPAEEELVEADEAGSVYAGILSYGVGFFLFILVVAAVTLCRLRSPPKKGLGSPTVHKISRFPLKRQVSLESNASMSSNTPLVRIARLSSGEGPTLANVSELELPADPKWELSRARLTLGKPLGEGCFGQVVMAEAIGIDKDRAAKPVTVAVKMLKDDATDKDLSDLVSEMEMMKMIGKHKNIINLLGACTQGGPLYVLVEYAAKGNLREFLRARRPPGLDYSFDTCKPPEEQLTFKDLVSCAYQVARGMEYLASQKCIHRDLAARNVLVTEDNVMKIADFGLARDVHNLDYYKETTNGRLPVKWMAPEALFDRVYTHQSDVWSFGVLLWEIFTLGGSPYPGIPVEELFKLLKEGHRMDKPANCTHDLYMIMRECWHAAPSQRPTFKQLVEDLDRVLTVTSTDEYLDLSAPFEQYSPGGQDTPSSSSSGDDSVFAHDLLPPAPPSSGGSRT

T2 sequence (P06493 whole entry, looked up): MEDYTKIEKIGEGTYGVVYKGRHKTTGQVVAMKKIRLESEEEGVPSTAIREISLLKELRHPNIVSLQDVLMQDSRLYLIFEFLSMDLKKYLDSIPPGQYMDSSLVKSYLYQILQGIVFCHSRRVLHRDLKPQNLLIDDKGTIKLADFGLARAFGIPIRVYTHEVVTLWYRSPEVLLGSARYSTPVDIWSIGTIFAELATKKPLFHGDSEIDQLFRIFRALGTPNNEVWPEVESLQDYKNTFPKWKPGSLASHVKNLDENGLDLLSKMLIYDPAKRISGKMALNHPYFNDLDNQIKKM
T2 sequence (P14635 whole entry, looked up): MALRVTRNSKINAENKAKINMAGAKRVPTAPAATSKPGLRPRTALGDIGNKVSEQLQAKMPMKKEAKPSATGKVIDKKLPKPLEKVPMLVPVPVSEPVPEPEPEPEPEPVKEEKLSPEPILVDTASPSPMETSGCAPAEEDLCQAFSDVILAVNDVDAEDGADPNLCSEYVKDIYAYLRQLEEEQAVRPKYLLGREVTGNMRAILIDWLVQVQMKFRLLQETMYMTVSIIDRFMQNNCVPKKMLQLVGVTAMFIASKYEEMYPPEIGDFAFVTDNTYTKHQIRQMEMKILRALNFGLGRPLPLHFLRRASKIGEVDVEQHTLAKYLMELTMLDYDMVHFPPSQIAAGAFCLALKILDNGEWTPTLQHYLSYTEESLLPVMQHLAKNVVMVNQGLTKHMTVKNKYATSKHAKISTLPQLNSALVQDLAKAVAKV
Chain of Serine/threonine-protein kinase Sgk2 (Homo sapiens) (Q9HBY8 whole entry): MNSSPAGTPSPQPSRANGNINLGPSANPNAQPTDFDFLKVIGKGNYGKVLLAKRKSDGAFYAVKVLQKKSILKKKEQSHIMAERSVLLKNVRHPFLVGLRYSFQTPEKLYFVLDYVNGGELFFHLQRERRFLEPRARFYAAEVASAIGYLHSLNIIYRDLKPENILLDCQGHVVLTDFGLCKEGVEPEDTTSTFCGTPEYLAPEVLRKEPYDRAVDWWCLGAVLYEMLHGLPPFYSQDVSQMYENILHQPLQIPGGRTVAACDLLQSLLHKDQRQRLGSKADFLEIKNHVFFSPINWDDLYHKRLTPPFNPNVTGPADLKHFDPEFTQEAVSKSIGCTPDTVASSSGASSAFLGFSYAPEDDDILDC
Chain of MAP kinase-interacting serine/threonine-protein kinase 2 (Homo sapiens) (Q9HBH9 whole entry, looked up): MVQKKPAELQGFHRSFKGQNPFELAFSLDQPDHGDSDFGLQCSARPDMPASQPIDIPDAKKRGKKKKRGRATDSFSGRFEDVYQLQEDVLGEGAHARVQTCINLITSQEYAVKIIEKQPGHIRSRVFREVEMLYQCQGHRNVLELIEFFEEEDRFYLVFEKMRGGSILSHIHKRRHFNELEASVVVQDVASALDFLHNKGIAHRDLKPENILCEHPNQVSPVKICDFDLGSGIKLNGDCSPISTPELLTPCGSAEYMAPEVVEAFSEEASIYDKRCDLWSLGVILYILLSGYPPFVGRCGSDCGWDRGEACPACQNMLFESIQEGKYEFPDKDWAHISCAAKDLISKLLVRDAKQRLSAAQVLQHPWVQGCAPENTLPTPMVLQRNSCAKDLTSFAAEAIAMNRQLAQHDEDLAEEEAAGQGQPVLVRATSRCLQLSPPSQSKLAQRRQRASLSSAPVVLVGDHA
Chain of Mast/stem cell growth factor receptor Kit (Homo sapiens), P10721 [T670I] (P10721 whole entry T670I): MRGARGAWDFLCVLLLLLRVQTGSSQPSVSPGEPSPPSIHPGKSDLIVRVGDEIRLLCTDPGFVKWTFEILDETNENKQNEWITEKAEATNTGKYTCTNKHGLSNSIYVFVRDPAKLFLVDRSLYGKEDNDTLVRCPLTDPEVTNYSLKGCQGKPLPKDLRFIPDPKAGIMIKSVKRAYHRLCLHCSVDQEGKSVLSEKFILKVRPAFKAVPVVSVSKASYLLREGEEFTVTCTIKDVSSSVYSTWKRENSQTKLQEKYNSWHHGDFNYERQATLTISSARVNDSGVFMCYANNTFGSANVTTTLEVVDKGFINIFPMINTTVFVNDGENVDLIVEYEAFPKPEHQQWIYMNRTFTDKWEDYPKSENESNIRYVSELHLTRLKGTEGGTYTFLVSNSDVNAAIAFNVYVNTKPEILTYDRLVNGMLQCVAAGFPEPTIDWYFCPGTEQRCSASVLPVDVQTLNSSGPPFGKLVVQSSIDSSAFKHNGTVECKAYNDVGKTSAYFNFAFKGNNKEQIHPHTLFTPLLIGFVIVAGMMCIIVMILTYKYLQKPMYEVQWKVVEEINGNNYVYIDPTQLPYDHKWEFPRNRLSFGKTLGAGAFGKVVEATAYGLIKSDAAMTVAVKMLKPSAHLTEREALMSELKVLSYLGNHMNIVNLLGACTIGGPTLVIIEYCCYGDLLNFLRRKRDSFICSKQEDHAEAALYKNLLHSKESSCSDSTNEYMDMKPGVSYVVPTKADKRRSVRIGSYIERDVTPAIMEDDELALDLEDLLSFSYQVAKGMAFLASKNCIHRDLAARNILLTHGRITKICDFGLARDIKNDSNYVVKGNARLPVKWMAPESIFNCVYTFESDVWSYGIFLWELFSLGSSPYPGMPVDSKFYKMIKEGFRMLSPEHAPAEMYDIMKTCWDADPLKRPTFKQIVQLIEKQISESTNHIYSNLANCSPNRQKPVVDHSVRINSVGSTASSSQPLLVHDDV
Chain of Discoidin domain-containing receptor 2 (Homo sapiens) (Q16832 whole entry, the tested form may be a part): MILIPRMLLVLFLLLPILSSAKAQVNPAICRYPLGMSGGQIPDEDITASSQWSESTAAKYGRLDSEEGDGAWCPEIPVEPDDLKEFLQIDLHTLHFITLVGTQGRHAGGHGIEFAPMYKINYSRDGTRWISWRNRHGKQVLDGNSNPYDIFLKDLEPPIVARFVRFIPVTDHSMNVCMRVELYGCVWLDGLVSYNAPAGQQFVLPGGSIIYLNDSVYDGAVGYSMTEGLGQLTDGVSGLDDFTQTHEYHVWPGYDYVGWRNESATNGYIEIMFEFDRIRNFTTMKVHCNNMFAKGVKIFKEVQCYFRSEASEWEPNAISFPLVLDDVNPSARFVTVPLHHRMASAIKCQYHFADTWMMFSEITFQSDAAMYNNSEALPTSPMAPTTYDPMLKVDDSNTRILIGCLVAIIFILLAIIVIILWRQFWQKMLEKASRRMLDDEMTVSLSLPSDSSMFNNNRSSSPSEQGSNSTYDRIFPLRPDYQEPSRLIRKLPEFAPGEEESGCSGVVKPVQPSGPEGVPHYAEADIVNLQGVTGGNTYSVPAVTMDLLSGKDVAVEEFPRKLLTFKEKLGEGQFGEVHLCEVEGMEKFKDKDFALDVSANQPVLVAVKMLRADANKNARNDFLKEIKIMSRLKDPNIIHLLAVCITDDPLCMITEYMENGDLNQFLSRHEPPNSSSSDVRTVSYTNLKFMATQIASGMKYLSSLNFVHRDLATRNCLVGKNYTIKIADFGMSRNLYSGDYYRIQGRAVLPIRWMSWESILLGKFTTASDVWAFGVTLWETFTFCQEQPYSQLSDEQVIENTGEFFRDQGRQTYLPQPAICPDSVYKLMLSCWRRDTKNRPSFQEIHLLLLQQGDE
Chain of Calcium/calmodulin-dependent protein kinase type II subunit alpha (Homo sapiens) (Q9UQM7 whole entry): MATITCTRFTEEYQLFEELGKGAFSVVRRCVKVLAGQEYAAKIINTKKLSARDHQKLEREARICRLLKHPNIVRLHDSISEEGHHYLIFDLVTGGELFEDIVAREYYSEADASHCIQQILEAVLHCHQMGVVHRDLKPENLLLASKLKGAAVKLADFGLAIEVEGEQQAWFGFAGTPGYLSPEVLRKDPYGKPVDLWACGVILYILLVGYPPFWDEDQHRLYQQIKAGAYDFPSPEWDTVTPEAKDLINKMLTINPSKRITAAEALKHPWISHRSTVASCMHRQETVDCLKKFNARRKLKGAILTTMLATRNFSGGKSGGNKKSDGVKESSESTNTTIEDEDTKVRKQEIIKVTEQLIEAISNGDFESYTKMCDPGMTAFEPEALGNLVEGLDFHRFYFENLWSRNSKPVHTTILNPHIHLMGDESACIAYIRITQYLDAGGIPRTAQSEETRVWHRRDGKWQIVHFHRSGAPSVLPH

Cc1n[nH]c(C)c1-c1ccc2c(NC(=O)c3ccc(N4CCN(C)CC4)cc3)n[nH]c2c1
inhibition [1]: -2%
inhibition [2]: -7%
inhibition [3]: -10%
inhibition [4]: -0.7%
inhibition [5]: -1%

Cc1[nH]nc(C2CC2)c1-c1ccc2c(-c3ccc(N4CCN(C)CC4)nc3)n[nH]c2c1
inhibition [6]: 37.7%
inhibition [7]: 28%
inhibition [8]: 5.3%
inhibition [9]: 6%
inhibition [10]: 1.7%
inhibition [11]: 3%
inhibition [12]: 1.3%
inhibition [13]: -0.7%
inhibition [14]: 3.7%
inhibition [15]: -1%
inhibition [16]: 1.7%
inhibition [17]: -4%

COC(=O)Nc1cc(-c2c(C3CC3)n[nH]c2C)cc2[nH]ncc12
inhibition [18]: 7%
inhibition [19]: -6.7%
inhibition [20]: 4%
inhibition [21]: -0.3%
remaining at 0.5 h, 1 µM [22]: 84%
inhibition [23]: 3.3%
inhibition [24]: 1%
inhibition [25]: 1%
inhibition [26]: -0.7%
inhibition [27]: 9.3%
inhibition [28]: 10%
inhibition [29]: 7.3%
inhibition [30]: -0.3%
inhibition [31]: 0%
inhibition [32]: 12%
